Assay results taken from patent US8829034B2, “Compounds which modulate the CB2 receptor” (Boehringer Ingerlheim International GmbH, priority 2006, dated 2014).
Where two headings read alike, the source gives them in different places.

Biological target: T1, human CB2R (Homo sapiens, UniProt P34972)
T1 construct: host or cells: CHO cells
Assay: CB2R mediated modulation of cAMP synthesis
Format: cell-based
Details: for agonistic activity: found through the use of the above described assays
Method: B. CB2R Mediated Modulation of cAMP Synthesis:
CHO cells expressing human CB2R (Euroscreen) were plated at a density of 5000 cells per well in 384 well plates and incubated overnight at 37° C. After removing the media, the cells were treated with test compounds diluted in stimulation buffer containing 1 mM IBMX, 0.25% BSA and 10 uM Forskolin. The assay was incubated for 30 minutes at 37° C. Cells were lysed and the cAMP concentration was measured using DiscoverX-XS cAMP kit, following the manufacturer's protocol. In this setting, agonists will decrease forskolin induced production of cAMP while inverse agonists will further increase forskolin induced production of cAMP. EC50 of agonists were calculated as follows. The maximal amount of cAMP produced by forskolin compared to the level of cAMP inhibited by 1 uM CP55940 is defined as 100%. The EC50 value of each test compound was determined as the concentration at which 50% of the forskolin-stimulated cAMP synthesis was inhibited. Data was analyzed using a four-parameter logistic model. (Model 205 of XLfit 4.0).

[1] = CHO cells expressing human CB2R, inhibition of forskolin-stimulated cAMP synthesis, compounds having agonist activity, read-out: CB2 EC50

T1 sequence (P34972 whole entry): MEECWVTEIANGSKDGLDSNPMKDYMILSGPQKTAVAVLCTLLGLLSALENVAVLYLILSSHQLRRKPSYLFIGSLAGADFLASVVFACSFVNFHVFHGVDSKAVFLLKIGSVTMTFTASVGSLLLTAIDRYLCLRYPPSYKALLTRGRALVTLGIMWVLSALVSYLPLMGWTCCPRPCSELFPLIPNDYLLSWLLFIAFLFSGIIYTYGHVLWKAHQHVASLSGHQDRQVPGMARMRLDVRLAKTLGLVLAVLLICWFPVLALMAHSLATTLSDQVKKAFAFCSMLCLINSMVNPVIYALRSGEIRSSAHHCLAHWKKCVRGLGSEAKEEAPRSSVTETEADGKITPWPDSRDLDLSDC

Structure (SMILES)	agonistic activity	EC50 [nM]	EC50 [1] [nM]
CC(C)(C)c1cc(NC(=O)C2(S(=O)(=O)C3CCCCC3)CCC2)no1 [1-Cyclohexanesulfonyl-cyclobutanecarboxylic acid (5-tert-butyl-isoxazol-3-yl)-amide]	agonistic activity	0.5	
CC(C)(C)c1csc(NC(=O)C(C)(C)S(=O)(=O)C2CCCC2)n1 [N-(4-tert-Butyl-thiazol-2-yl)-2-cyclopentanesulfonyl-2-methyl-propionamide]	agonistic activity	19	
CC(C)(C)c1cc(NC(=O)C(C)(C)S(=O)(=O)C2CCCC2)on1 [N-(3-tert-Butyl-isoxazol-5-yl)-2-cyclopentanesulfonyl-2-methyl-propionamide]	agonistic activity	0.9	
CCCS(=O)(=O)C(C)(C)C(=O)Nc1nc2c(s1)CCCC2 [2-Methyl-2-(propane-1-sulfonyl)-N-(4,5,6,7-tetrahydro-benzothiazol-2-yl)-propionamide]	agonistic activity		
CC(C)(C)c1cc(NC(=O)C(C)(C)S(=O)(=O)CC2CCNCC2)no1 [N-(5-tert-Butyl-isoxazol-3-yl)-2-methyl-2-(piperidin-4-ylmethanesulfonyl)-propionamide]	agonistic activity		
CC(C)C(C(=O)Nc1cc(C(C)(C)C)on1)S(=O)(=O)C(C)C (stereo not drawn) [N-(5-tert-Butyl-isoxazol-3-yl)-3-methyl-2-(propane-2-sulfonyl)-butyramide]	agonistic activity		
CC(C)(C)c1cc(NC(=O)C(C)(C)S(=O)(=O)C2(C)CCOCC2)no1 [N-(5-tert-Butyl-isoxazol-3-yl)-2-methyl-2-(4-methyl-tetrahydro-pyran-4-sulfonyl)-propionamide]	agonistic activity	9.4	
Cn1nc(C(C)(C)C)cc1NC(=O)C(C)(C)S(=O)(=O)CC1CCCCO1 (stereo not drawn) [N-(5-tert-Butyl-2-methyl-2H-pyrazol-3-yl)-2-methyl-2-(tetrahydro-pyran-2-ylmethanesulfonyl)-propionamide]	agonistic activity		
Cc1ccc(NC(=O)C(C)(C)S(=O)(=O)CC2CCOCC2)nc1 [2-Methyl-N-(5-methyl-pyridin-2-yl)-2-(tetrahydro-pyran-4-ylmethanesulfonyl)-propionamide]	agonistic activity		
CC(C)(C)c1cccc(NC(=O)C(C)(C)S(=O)(=O)CC2CCOCC2)c1 [N-(3-tert-Butyl-phenyl)-2-methyl-2-(tetrahydro-pyran-4-ylmethanesulfonyl)-propionamide]	agonistic activity	14.3	
Cn1nc(C(C)(C)C)cc1NC(=O)C(C)(C)S(=O)(=O)C1CCCC1 [N-(5-tert-Butyl-2-methyl-2H-pyrazol-3-yl)-2-cyclopentanesulfonyl-2-methyl-propionamide]	agonistic activity		
CC(C)(C(=O)Nc1ccc(C(F)(F)F)cn1)S(=O)(=O)CC1CCCCO1 (stereo not drawn) [2-Methyl-2-(tetrahydro-pyran-2-ylmethanesulfonyl)-N-(5-trifluoromethyl-pyridin-2-yl)-propionamide]	agonistic activity		
CC(C)(C(=O)Nc1ccc(C(F)(F)F)cn1)S(=O)(=O)CC1CCCCC1 [2-Cyclohexylmethanesulfonyl-2-methyl-N-(5-trifluoromethyl-pyridin-2-yl)-propionamide]	agonistic activity	15.4	
Cc1nc(NC(=O)C(C)(C)S(=O)(=O)C(C)C)sc1C(C)(C)C [N-(5-tert-Butyl-4-methyl-thiazol-2-yl)-2-methyl-2-(propane-2-sulfonyl)-propionamide]	agonistic activity	25.8	
CC(C)(C(=O)Nc1nc(C2CCCCC2)cs1)S(=O)(=O)CC1CCOCC1 [N-(4-Cyclohexyl-thiazol-2-yl)-2-methyl-2-(tetrahydro-pyran-4-ylmethanesulfonyl)-propionamide]	agonistic activity	8.3	
CC(C)CCS(=O)(=O)C(C)(C)C(=O)Nc1cc(C(C)(C)C)no1 [N-(3-tert-Butyl-isoxazol-5-yl)-2-methyl-2-(3-methyl-butane-1-sulfonyl)-propionamide]	agonistic activity		0.04
CC(C)(C(=O)Nc1nnc(-c2ccccc2)[nH]1)S(=O)(=O)C1CCCC1 [2-Cyclopentanesulfonyl-2-methyl-N-(5-phenyl-4H-1,2,4-triazol-3-yl)-propionamide]	agonistic activity	3.8	
CC(C)(C)c1cc(NC(=O)C(C)(C)S(=O)(=O)C2CCOCC2)no1 [N-(5-tert-Butyl-isoxazol-3-yl)-2-methyl-2-(tetrahydro-pyran-4-sulfonyl)-propionamide]	agonistic activity		0.7
CC(C)(C)c1cc(NC(=O)C(C)(C)S(=O)(=O)CC2CCCCO2)on1 (stereo not drawn) [N-(3-tert-Butyl-isoxazol-5-yl)-2-methyl-2-(tetrahydro-pyran-2-ylmethanesulfonyl)-propionamide]	agonistic activity	0.2	
CCCc1cc(NC(=O)C(C)(C)S(=O)(=O)CC2CCOCC2)on1 [2-Methyl-N-(3-propyl-isoxazol-5-yl)-2-(tetrahydro-pyran-4-ylmethanesulfonyl)-propionamide]	agonistic activity		
CC(C)c1cc(NC(=O)C(C)(C)S(=O)(=O)CC2CCOCC2)on1 [N-(3-Isopropyl-isoxazol-5-yl)-2-methyl-2-(tetrahydro-pyran-4-ylmethanesulfonyl)-propionamide]	agonistic activity		
CC(C)(C)c1nnc(NC(=O)C(C)(C)S(=O)(=O)CC2CCOCC2)s1 [N-(5-tert-Butyl-[1,3,4]thiadiazol-2-yl)-2-methyl-2-(tetrahydro-pyran-4-ylmethanesulfonyl)-propionamide]	agonistic activity		
CC(C)(C)c1cc(NC(=O)C(C)(C)S(=O)(=O)CC2CC2)no1 [N-(5-tert-Butyl-isoxazol-3-yl)-2-cyclopropylmethanesulfonyl-2-methyl-propionamide]	agonistic activity	34.3	
CC(C)(C)c1cc(NC(=O)C(C)(C)S(=O)(=O)CC2CCCO2)on1 (stereo not drawn) [N-(3-tert-Butyl-isoxazol-5-yl)-2-methyl-2-(tetrahydro-furan-2-ylmethanesulfonyl)-propionamide]	agonistic activity	31.5	
CC(C)(C)c1csc(NC(=O)C(C)(C)S(=O)(=O)Cc2ccc(Cl)cc2)n1 [N-(4-tert-Butyl-thiazol-2-yl)-2-(4-chloro-phenylmethanesulfonyl)-2-methyl-propionamide]	agonistic activity		

Further lines, with some results ahead:

agonistic activity	Structure (SMILES)	EC50 [nM]	EC50 [1] [nM]
agonistic activity	CC(C)(C)c1csc(NC(=O)C(C)(C)S(C)(=O)=O)n1 [N-(4-tert-Butyl-thiazol-2-yl)-2-methanesulfonyl-2-methyl-propionamide]		
agonistic activity	CC(C)(C)c1cc(NC(=O)C(C)(C)S(=O)(=O)CCCc2ccccc2)no1 [N-(5-tert-Butyl-isoxazol-3-yl)-2-methyl-2-(3-phenyl-propane-1-sulfonyl)-propionamide]		
agonistic activity	CCCS(=O)(=O)C(C)(C)C(=O)Nc1c(C)c(-c2ccccc2)nn1C [N-(2,4-Dimethyl-5-phenyl-2H-pyrazol-3-yl)-2-methyl-2-(propane-1-sulfonyl)-propionamide]		
agonistic activity	CC(C)S(=O)(=O)C(C)(C)C(=O)Nc1nc(-c2ccccn2)cs1 [2-Methyl-2-(propane-2-sulfonyl)-N-(4-pyridin-2-yl-thiazol-2-yl)-propionamide]		
agonistic activity	CC(C)(C(=O)Nc1nc2ccccc2o1)S(=O)(=O)CC1CCOCC1 [N-Benzooxazol-2-yl-2-methyl-2-(tetrahydro-pyran-4-ylmethanesulfonyl)-propionamide]		
agonistic activity	CC(C)S(=O)(=O)C(C)(C)C(=O)Nc1cc(-c2cccs2)nn1C [2-Methyl-N-(2-methyl-5-thiophen-2-yl-2H-pyrazol-3-yl)-2-(propane-2-sulfonyl)-propionamide]		
agonistic activity	CC(C)S(=O)(=O)C(C)(C)C(=O)Nc1nc(-c2ccccc2)cs1 [2-Methyl-N-(4-phenyl-thiazol-2-yl)-2-(propane-2-sulfonyl)-propionamide]		
agonistic activity	CCCS(=O)(=O)C(C)(C)C(=O)Nc1cc(C(F)(F)F)ccn1 [2-Methyl-2-(propane-1-sulfonyl)-N-(4-trifluoromethyl-pyridin-2-yl)-propionamide]		
agonistic activity	CCCS(=O)(=O)C(C)(C)C(=O)Nc1nc2ccccc2s1 [N-Benzothiazol-2-yl-2-methyl-2-(propane-1-sulfonyl)-propionamide]		
agonistic activity	CC(C)S(=O)(=O)C(C)(C)C(=O)Nc1cccc(C(C)(C)C)c1 [N-(3-tert-Butyl-phenyl)-2-methyl-2-(propane-2-sulfonyl)-propionamide]		
agonistic activity	CCCS(=O)(=O)C(C)(C)C(=O)Nc1ccc(C(F)(F)F)cn1 [2-Methyl-2-(propane-1-sulfonyl)-N-(5-trifluoromethyl-pyridin-2-yl)-propionamide]		
agonistic activity	CCCS(=O)(=O)C(C)(C)C(=O)Nc1ccc2ccccc2n1 [2-Methyl-2-(propane-1-sulfonyl)-N-quinolin-2-yl-propionamide]		
